ChEMBL document CHEMBL1131853 (Bioorg Med Chem Lett, 1999)

Legend:
D(2) dopamine receptor = D(2) dopamine receptor (Rattus norvegicus, UniProt P61169); assay: Inhibition of [3H]raclopride binding to Dopamine receptor D2 of rat striatum membranes; assay type: cell membranes, Membrane
Mus musculus = assay: Compound was tested in vivo for anticonvulsant activity in DBA/2 mice by i.p. administration; assay type: functional; conditions: ip
[1] = molecular target: Sodium channel alpha subunits; brain (Types I, II, III) (Rattus norvegicus, UniProt P04775+P04774+P08104); assay: Inhibition of veratridine-induced depolarization in rat cerebrocortical synaptosomes using the voltage sensitive fluorescent dye Rhodamine 6G; assay type: functional, subcellular
[2] = Effect on low-threshold (T-type) Calcium current in primary cultured rat cerebrocortical neurons; assay type: functional

Sequence of D(2) dopamine receptor (P61169 whole entry): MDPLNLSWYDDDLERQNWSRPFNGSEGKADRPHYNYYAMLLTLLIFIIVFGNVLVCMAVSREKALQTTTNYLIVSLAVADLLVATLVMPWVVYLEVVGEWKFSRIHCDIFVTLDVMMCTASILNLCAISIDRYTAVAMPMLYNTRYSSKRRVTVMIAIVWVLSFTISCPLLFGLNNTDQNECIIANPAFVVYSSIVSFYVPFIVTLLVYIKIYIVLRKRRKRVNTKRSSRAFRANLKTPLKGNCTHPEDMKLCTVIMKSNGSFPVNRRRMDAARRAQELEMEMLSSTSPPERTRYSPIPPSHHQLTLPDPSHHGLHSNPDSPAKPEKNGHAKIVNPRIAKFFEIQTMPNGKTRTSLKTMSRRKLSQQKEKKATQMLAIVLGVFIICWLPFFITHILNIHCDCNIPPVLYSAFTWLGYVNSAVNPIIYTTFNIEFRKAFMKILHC

| Structure (SMILES) | IC50 (D(2) dopamine receptor) | IC50 [1] | IC50 [2] | ED50 (Mus musculus) |
| --- | --- | --- | --- | --- |
| Cl.OC(COc1ccccc1)CN1CCC(c2ccc(Oc3ccccc3)cc2)CC1 (centres undefined) | 4.64 µM | 0.22 µM | 3.5 µM | 5 mg/kg |
| Fc1ccc(C(c2ccc(F)cc2)N2CCN(C/C=C/c3ccccc3)CC2)cc1 [FLUNARIZINE] | – | – | 2.2 µM | 6.4 mg/kg |
| Cl.O[C@@H](COc1ccccc1)CN1CCC(c2ccc(Oc3ccccc3)cc2)CC1 | 4.08 µM | 0.12 µM | 2.7 µM | 2.5 mg/kg |

Stronger by IC50 [2], values ahead:

| IC50 (D(2) dopamine receptor) | IC50 [1] | IC50 [2] | Structure (SMILES) | ED50 (Mus musculus) |
| --- | --- | --- | --- | --- |
| > 10 µM | 0.36 µM | 0.8 µM | Cl.OC(COc1ccccc1)CN1CCC(c2ccc(Cc3ccc(F)cc3)cc2)CC1 (centres undefined) | 7.5 mg/kg |
| – | 0.32 µM | 0.8 µM | C(=C\c1ccccc1)/CN1CCC(c2ccc(Oc3ccccc3)cc2)CC1.Cl | 4.2 mg/kg |
| 4.34 µM | 0.13 µM | 2 µM | Cl.O[C@H](COc1ccccc1)CN1CCC(c2ccc(Oc3ccccc3)cc2)CC1 | 2.5 mg/kg |
| – | 0.19 µM | 0.6 µM | Cl.Fc1ccc(Cc2ccc(C3CCN(C/C=C/c4ccccc4)CC3)cc2)cc1 | 2.2 mg/kg |
